Results: patent US11242346B2, “Mechanistic target of rapamycin signaling pathway inhibitors and therapeutic applications thereof” (SUZHOU KINTOR PHARMACEUTICALS, INC., priority 2016, dated 2022)

Assays:
[1] = target: mTOR (FRAP1) (Homo sapiens, UniProt P42345); test: SelectScreen Profiling, Z'-LYTE kinase assay, mTOR (FRAP1); assay type: biochemical; details: 0.1 μM compound, ATP at Km, read-out: mTOR inh% @0.1 μM
Excerpt: (§1) Some of the example compounds were submitted to Life Technologies Corporation SelectScreen® Profiling Service to test their potency in inhibiting the kinase catalytic activities of mTOR, PI3Kα, VEGF2, FGFR1, HER1 (EGFR) and HER2. A concentration of ATP at the Km of the corresponding kinase was used for all assays. The mTOR (FRAP1), VEGF2, FGFR1, HER1 (EGFR) and HER2 assays used Z′-LYTE® technology. The PI3Kα assay used Adapta® technology. The symbol “inh %” as used herein generally refers to inhibition percentage.

[2] = target: HER1 (EGFR) (Homo sapiens, UniProt P00533); test: SelectScreen Profiling, Z'-LYTE kinase assay, HER1 (EGFR); assay type: biochemical; details: 1 μM compound, ATP at Km, read-out: HER1 inh % @1 μM
Excerpt: as §1

[3] = target: HER2 (Homo sapiens, UniProt P04626); test: SelectScreen Profiling, Z'-LYTE kinase assay, HER2; assay type: biochemical; details: 1 μM compound, ATP at Km, read-out: HER2 inh % @1 μM
Excerpt: as §1

[4] = tested on: MCF-7; test: NCI60 panel growth inhibition, MCF-7; assay type: cell-based; details: Homo sapiens, MCF7
Procedure: (§2) Cell growth inhibitory activities against cancer cells of the present compounds were also evaluated by submitting selected the example compounds to US NCI-Chemotherapeutic Agents Repository for screening against NCI60 panel. The United States NCI-60 platform is a cancer cell platform established with 60 different human cancer cell lines from 9 different kinds of organs. This platform represents the biological characteristics of the corresponding tumor type. The drugs were screened by measuring the ability of each test compound at a range of concentrations to inhibit the growth of various tumor cells.

[5] = tested on: NCI 60 human cell lines; test: NCI60 panel growth inhibition, average over 60 cell lines; assay type: cell-based
Procedure: as §2

[6] = tested on: A549; test: NCI60 panel growth inhibition, A549; assay type: cell-based; details: Homo sapiens
Procedure: as §2

[7] = tested on: NCI-H23; test: NCI60 panel growth inhibition, NCI-H23; assay type: cell-based; details: Homo sapiens
Procedure: as §2

[8] = tested on: SKOV-3; test: NCI60 panel growth inhibition, SKOV-3; assay type: cell-based; details: Homo sapiens, SK-OV-3
Procedure: as §2

[9] = Rat pharmacokinetic study (IV and PO); assay type: in vivo; details: for AUC(0-t) / Cmax / MRT / clearance / half-life / Tmax / bioavailability: blood; for bioavailability: PO 10 mg/kg vs IV 5 mg/kg, read-out: Fpo (oral bioavailability)
Procedure: (§3) Active mTOR inhibitors in enzymatic and/or cell-based assays herein were evaluated for pharmacokinetic properties. Preferable compounds are with pharmacokinetic properties of low clearance, long half-life and/or good oral bioavailability (Fpo). In vitro, selected example compounds were evaluated for metabolic stability by incubating with human liver microsome (HLM) for 60 min. Compounds that were metabolized slower (i.e. higher % remaining) are preferred. […] The more metabolic stable example compounds in the HLM assay were further evaluated for pharmacokinetic properties in vivo. In a representative experiment, selected example compounds were dosed to rats intravenously (IV, 5 mg/kg, 30% PEG400+30% PG+1% DMSO in saline) and orally (PO, 10 mg/kg, 2.4% DMSO+0.1% Tween80 in 0.5% CMC-Na), rat blood samples were taken at designed time points after dosing and analyzed for tested drug concentrations using LC-MS/MS. Pharmacokinetic parameters were derived from the time curve of drug concentrations.

[10] = target: FGFR1 (Homo sapiens, UniProt P11362); test: SelectScreen Profiling, Z'-LYTE kinase assay, FGFR1; assay type: biochemical; details: 1 μM compound, ATP at Km, read-out: FGFR 1 inh % @1 μM
Excerpt: as §1

[11] = tested on: NCI-H460; test: NCI60 panel growth inhibition, NCI-H460; assay type: cell-based; details: Homo sapiens
Procedure: as §2

[12] = Metabolic stability in human liver microsome (HLM); assay type: in vitro ADME; details: incubation with human liver microsome for 60 min
Procedure: as §3

[13] = tested on: PC-3; test: NCI60 panel growth inhibition, PC-3; assay type: cell-based; details: Homo sapiens
Procedure: as §2

[14] = tested on: mammalian tumor cell lines such as PC-3, LNCAP, U87, Huh-7, HepG2 and MDA-MB-468; test: Cell proliferation/survival MTT assay in tumor cell lines; assay type: cell-based; details: 5 days (120 h) culture; cell line not specified; read-out: IC50, inhibition of tumor cell growth (MTT)
Procedure: The cytotoxic or cytostatic activity of Formula I-III exemplary compounds was measured by establishing proliferating mammalian tumor cell lines such as PC-3, LNCAP, U87, Huh-7, HepG2 and MDA-MB-468 in a cell culture medium, adding a test compound, culturing the cells for a period of 5 days by measuring cell viability via MTT assays. Dose response data were obtained for each test compound and the degree of inhibition of tumor cell growth was expressed as an IC50 value. […] For example. For example, compounds of example 14, 15, 46,29, 45, 49, 122, 88, 54, 55, 58, 59, 63, 64, 66, 67, 68, 113, 86, 90.
PC-3 (or U87) cells were seeded in 96-well plates at low density (at 2,000 cells per well) in media supplemented with 10% FBS (growth media) and transferred to serum-free media (1% FBS) after 24 h. Designated concentrations of drug were added to each well. The cells were incubated for 120 h. At the end of drug exposure, 20 μL/well of MTT solution was added. After 4 h at 37° C. in a humidified 5% CO2 atmosphere, the absorbance at 490 nm was recorded by using a microplate reader. IC50 was calculated using GraphPad Prism version 5 for Windows. The curves were fit using a nonlinear regression model with a log (inhibitor) versus response formula.

[15] = tested on: HCT-116; test: NCI60 panel growth inhibition, HCT-116; assay type: cell-based; details: Homo sapiens
Procedure: as §2

[16] = target: VEGF2 (Homo sapiens, UniProt P35968); test: SelectScreen Profiling, Z'-LYTE kinase assay, VEGF2; assay type: biochemical; details: 1 μM compound, ATP at Km, read-out: VEGF 2 inh % @1 μM
Excerpt: as §1

[17] = target: PI3Kα (Homo sapiens, UniProt P42336); test: SelectScreen Profiling, Adapta kinase assay, PI3Kα; assay type: biochemical; details: 0.1 μM compound, ATP at Km, read-out: PI3Kα inh % @0.1 μM
[18] = Stability noted on isolation of the compound; assay type: physicochemical; details: after Prep-TLC purification
Procedure: To a mixture of compound 33 (80 mg, 0.28 mmol), compound 2 (22 mg, 0.09 mmol) and 2M Na2CO3 (1.2 mL) was added dioxane (6 mL). N2 was bubbled through the solution for 1.5 minutes, at which time Pd(dppf)Cl2 (12 mg, […]) was added. The reaction was stirred at 100° C. for 1 hour under N2. After cooling to room temperature, Ethyl acetate was added and the resulting slurry was sonicated and filtered. Additional ethyl acetate was used to wash the solid. The combined organic extracts were concentrated and the crude material was purified by Prep-TLC using Petroleum ether:Ethyl acetate (3:1) affording to Example 33 (10 mg),and the compound was unstable. ^1H NMR (400 MHz, CDCl3): δ 8.83 (s, 1H), 7.68-7.64 (m, 1H), 6.74-6.78 (m, 1H), 6.70-6.73 (m, 1H), 5.53 (bs, 2H), 4.11-4.04 (m, 4H), 3.87-3.82 (m, 4H). ESI-MS (M+H)^+: 366.1

Sequence of HER2 (P04626 23-1255): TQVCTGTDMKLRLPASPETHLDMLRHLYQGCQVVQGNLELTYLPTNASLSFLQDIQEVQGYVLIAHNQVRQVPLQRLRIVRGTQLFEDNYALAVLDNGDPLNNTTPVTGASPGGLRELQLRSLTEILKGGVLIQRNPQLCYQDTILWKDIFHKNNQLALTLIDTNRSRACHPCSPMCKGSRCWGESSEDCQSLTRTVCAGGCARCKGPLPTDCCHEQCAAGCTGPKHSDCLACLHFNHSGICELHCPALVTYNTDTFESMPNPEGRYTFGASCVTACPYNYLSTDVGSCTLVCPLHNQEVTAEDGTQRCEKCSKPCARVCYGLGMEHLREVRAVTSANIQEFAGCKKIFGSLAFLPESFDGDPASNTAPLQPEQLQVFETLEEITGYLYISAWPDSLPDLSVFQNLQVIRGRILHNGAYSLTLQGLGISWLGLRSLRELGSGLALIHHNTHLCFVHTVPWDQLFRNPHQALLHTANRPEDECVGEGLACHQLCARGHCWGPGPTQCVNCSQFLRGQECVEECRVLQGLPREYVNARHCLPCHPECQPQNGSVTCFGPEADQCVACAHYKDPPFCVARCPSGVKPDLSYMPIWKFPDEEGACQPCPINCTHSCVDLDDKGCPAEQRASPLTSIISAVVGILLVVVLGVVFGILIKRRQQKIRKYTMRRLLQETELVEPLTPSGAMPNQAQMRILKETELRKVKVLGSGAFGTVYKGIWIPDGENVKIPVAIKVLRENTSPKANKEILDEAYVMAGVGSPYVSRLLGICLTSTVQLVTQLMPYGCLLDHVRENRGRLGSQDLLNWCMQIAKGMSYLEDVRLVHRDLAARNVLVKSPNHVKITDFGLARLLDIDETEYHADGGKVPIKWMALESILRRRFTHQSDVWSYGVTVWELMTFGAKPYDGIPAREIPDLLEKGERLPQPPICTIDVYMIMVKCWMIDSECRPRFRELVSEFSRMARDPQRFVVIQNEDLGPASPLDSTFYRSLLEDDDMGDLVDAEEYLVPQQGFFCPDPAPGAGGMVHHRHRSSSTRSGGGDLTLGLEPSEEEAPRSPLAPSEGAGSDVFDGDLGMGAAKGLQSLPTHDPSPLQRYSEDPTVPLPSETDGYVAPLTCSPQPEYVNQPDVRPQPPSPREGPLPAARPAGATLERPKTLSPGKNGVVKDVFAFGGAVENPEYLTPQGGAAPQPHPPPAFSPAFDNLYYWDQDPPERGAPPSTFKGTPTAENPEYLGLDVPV
Sequence of PI3Kα (P42336 whole entry): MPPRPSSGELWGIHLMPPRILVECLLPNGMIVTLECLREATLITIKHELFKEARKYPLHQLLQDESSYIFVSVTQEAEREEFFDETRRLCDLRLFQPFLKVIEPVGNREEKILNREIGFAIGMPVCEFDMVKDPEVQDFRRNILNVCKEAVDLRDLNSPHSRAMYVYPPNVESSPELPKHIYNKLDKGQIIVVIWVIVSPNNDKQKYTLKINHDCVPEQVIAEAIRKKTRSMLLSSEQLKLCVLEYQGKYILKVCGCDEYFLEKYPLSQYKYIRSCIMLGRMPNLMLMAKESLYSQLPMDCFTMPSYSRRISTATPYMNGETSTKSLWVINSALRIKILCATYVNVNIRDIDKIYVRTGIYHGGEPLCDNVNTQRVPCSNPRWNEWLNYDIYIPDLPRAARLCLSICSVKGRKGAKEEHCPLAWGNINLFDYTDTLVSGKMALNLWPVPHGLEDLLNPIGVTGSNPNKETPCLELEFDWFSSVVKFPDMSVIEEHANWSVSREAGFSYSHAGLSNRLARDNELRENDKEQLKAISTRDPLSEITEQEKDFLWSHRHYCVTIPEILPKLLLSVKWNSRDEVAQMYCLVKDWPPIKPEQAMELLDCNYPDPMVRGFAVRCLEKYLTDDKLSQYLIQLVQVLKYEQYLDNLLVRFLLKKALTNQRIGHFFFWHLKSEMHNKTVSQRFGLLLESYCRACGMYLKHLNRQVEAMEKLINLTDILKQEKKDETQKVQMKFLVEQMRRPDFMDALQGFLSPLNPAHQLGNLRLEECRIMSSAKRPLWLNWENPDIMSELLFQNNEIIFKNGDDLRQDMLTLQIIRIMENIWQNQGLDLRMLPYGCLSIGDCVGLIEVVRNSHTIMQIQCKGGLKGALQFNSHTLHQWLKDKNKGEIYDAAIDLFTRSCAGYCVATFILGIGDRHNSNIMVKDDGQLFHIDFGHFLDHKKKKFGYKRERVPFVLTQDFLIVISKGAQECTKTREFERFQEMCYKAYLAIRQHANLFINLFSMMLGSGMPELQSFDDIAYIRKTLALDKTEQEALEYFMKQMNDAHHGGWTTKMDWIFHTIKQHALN
Sequence of PI3Kα (P27986 whole entry partner): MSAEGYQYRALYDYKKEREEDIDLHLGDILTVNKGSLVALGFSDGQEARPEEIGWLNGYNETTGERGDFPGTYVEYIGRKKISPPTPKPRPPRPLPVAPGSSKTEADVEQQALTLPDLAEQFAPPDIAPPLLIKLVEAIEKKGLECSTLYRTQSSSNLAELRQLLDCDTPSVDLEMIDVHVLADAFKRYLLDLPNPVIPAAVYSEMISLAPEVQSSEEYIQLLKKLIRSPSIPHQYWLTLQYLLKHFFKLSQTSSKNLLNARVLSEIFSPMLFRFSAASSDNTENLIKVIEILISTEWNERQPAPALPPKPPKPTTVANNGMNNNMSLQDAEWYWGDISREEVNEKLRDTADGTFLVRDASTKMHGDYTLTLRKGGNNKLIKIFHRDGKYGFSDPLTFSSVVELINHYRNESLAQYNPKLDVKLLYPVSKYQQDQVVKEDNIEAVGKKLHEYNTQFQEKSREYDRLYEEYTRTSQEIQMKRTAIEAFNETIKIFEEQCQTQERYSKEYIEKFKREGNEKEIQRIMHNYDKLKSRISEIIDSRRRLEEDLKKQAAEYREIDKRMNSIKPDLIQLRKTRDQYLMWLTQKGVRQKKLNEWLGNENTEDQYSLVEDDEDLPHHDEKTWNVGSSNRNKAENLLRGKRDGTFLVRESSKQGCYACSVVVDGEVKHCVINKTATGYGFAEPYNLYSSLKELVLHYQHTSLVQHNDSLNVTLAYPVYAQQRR
Sequence of HER1 (EGFR) (P00533 25-1210): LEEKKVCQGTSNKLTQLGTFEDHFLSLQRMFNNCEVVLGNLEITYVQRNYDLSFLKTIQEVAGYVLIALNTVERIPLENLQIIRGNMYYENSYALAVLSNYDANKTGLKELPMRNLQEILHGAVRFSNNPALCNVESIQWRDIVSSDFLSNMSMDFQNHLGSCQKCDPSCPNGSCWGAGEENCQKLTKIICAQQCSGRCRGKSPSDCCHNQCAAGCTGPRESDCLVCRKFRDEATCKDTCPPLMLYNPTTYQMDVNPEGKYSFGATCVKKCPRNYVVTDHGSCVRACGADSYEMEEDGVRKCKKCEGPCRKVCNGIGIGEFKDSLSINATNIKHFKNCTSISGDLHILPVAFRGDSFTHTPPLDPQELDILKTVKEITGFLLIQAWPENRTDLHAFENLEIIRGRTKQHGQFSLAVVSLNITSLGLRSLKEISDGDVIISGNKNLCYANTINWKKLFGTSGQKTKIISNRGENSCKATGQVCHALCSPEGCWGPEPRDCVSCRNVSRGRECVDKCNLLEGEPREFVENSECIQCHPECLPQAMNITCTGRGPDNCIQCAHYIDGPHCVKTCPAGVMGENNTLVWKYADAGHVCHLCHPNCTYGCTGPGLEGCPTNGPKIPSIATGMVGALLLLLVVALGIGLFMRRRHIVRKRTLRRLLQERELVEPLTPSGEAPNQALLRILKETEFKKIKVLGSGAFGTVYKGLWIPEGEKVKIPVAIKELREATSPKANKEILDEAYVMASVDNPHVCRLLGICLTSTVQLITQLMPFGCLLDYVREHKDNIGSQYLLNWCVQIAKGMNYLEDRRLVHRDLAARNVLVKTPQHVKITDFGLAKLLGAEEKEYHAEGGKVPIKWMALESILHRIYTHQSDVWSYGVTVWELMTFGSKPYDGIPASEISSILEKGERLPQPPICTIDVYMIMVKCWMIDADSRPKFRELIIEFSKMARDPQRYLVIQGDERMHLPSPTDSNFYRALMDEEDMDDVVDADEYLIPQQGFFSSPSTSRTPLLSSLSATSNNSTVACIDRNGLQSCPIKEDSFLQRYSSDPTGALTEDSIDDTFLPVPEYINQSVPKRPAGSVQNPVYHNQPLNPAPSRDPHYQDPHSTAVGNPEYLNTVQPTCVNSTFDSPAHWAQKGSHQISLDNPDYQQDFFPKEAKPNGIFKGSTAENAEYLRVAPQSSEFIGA
Sequence of FGFR1 (P11362 22-822): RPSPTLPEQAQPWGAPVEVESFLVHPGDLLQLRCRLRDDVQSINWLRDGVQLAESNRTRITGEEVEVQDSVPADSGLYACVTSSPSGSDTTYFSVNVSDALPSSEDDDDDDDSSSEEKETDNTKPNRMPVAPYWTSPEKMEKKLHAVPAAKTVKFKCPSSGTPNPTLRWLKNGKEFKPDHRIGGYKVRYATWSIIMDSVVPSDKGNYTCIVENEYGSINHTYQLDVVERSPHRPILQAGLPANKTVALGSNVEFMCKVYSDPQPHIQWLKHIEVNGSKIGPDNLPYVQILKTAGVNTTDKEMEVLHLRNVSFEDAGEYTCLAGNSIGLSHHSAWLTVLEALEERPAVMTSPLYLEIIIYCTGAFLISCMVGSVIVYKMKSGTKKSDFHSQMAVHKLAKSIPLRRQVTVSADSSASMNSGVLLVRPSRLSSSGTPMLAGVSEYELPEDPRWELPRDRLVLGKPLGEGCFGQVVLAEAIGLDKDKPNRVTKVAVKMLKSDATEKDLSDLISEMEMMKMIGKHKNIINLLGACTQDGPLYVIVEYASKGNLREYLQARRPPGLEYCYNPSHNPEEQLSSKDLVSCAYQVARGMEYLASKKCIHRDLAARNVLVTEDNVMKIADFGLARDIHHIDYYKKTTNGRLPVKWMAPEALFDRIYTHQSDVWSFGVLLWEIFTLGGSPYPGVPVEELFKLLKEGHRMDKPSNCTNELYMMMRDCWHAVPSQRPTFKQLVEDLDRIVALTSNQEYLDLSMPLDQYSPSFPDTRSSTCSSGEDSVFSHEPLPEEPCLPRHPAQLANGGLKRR

Row | inhibition at 0.1 µM [1] [%] | inhibition at 1 µM [2] [%] | inhibition at 1 µM [3] [%] | AUC(0-t) ([9]; IV 5 mg/kg) [ng·h/mL] | Cmax ([9]; IV 5 mg/kg) [ng/mL] | MRT ([9]; IV 5 mg/kg) [h] | clearance ([9]; IV 5 mg/kg) [mL/min/kg] | half-life ([9]; IV 5 mg/kg) [h] | inhibition at 1 µM [10] [%] | metabolic stability in HLM [12] | inhibition at 1 µM [16] [%] | SMILES | GI50 [4] [nM] | GI50 [5] [nM] | GI50 [6] [nM] | GI50 [7] [nM] | GI50 [8] [nM] | GI50 [11] [nM] | GI50 [13] [nM] | IC50 [14] [nM] | GI50 [15] [nM] | further results
1 | 86 | 0 | -6 | 8760 | 8460 | 3.66 | 8.28 | 3.25 | -3 | metabolically stable | 11 | CN1CCN(C(=O)c2ccc(NC(=O)Nc3ccc(-c4nc(N5CCOCC5)c5cccn5n4)cc3)cc2)CC1 [Example 46] | 14.4 | 59 | 66.5 | 96.2 | 26.8 | 59.7 | 23 | < 500 | 60.2 | 
2 | 87 | -1 | -8 | 10100 | 6560 | 1.7 | 10.3 | 1.3 | 1 | metabolically stable | 8 | O=C(Nc1ccc(-c2nc(N3CCOCC3)c3cccn3n2)cc1)Nc1cccnc1 [Example 14] | 48.3 | 120 | 244 | 269 | 98.7 | 142 | 51 | < 500 | 41 | CL ([9]; PO 10 mg/kg): 30.13 mL/min/kg; AUC(0-t) ([9]; PO 10 mg/kg): 4900 ng·h/mL; Cmax ([9]; PO 10 mg/kg): 784 ng/mL; MRT ([9]; PO 10 mg/kg): 5.71 h; Tmax ([9]; PO 10 mg/kg): 1 h; half-life ([9]; PO 10 mg/kg): 3.28 h; bioavailability [9]: 22%; inhibition at 0.1 µM [17]: 11%
3 | 94 | -1 | -7 | 16600 | 11900 | 1.84 | 4.83 | 1.49 | -1 | metabolically stable | 11 | O=C(NCCO)Nc1ccc(-c2nc(N3CCOCC3)c3cccn3n2)cc1 [Example 29] |  |  |  |  |  |  |  | < 500 |  | CL ([9]; PO 10 mg/kg): 99 mL/min/kg; AUC(0-t) ([9]; PO 10 mg/kg): 1650 ng·h/mL; Cmax ([9]; PO 10 mg/kg): 380 ng/mL; MRT ([9]; PO 10 mg/kg): 2.9 h; Tmax ([9]; PO 10 mg/kg): 2 h; half-life ([9]; PO 10 mg/kg): 1.12 h; bioavailability [9]: 5%; inhibition at 0.1 µM [17]: 9%
4 | 98 | -2 | -7 | 3430 | 4710 | 5.57 | 17.8 | 4.98 | 4 | metabolically stable | 8 | CN(C)C1CCN(C(=O)c2ccc(NC(=O)Nc3ccc(-c4nc(N5CCOCC5)c5cccn5n4)cc3)cc2)CC1 [Example 15] | < 10 | 76 | 54.5 | 123 | 46.3 | 67 | 25 | < 500 | 65.7 | inhibition at 0.1 µM [17]: 54%
5 |  |  |  |  |  |  |  |  |  |  |  | Nc1ncc(-c2nc(N3CCOCC3)c3cccn3n2)c(C(F)(F)F)n1 [Example 33] |  |  |  |  |  |  |  |  |  | stability of the isolated compound [18]: unstable
6 | 94 | 1 | -1 | 11400 | 4700 | 3.03 | 7.35 | 2.13 | 0 | metabolically stable | -10 | OCCNC(=S)Nc1ccc(-c2nc(N3C[C@H]4CC[C@@H](C3)O4)c3cccn3n2)cc1 [Example 122] | 26.8 | 62 | 110 | 70.3 | 18.9 | 35.9 | 41 | < 500 | 364 | CL ([9]; PO 10 mg/kg): 13.3 mL/min/kg; AUC(0-t) ([9]; PO 10 mg/kg): 11900 ng·h/mL; Cmax ([9]; PO 10 mg/kg): 1910 ng/mL; MRT ([9]; PO 10 mg/kg): 7.33 h; Tmax ([9]; PO 10 mg/kg): 0.833 h; half-life ([9]; PO 10 mg/kg): 4.72 h; bioavailability [9]: 48%; inhibition at 0.1 µM [17]: 8%
